Literature values as cited in patent US20050032876A1, “Pharmaceutical compositions comprising sumatriptan and metoclopramide, and methods of use thereof” (priority 2003, published 2005).

Details: rapidly pre-systemically metabolized; very short half-life of the order of only about 2 hours

half-life: about 2 hours
Structure (SMILES): CNS(=O)(=O)Cc1ccc2[nH]cc(CCN(C)C)c2c1 [Sumatriptan]
